Laboratory results as given in ChEMBL document CHEMBL3763090, “A pharmacological perspective on the use of Brazilian Red Propolis and its isolated compounds against human diseases” (Eur J Med Chem, 2016).

Assay: Antioxidant activity assessed as inhibition of linoleic acid oxidation at 90 ug/ml measured over 60 mins by beta-carotene bleaching test
Format: physicochemical
Conditions: 1 h

COc1ccc([C@@H]2COc3cc(O)ccc3C2)c(O)c1
inhibition (INH): 39.5%
